For series [1] the following is noted: background statement on promethazine; cited from earlier work.
For series [2] the following is noted: cited from earlier work.
Series [3] addresses T1, longitudinal muscle from the intact ileum of guinea-pigs (histamine) (Cavia porcellus, UniProt P31389).
T1 construct: The longitudinal muscle was isolated from the intact ileum of guinea-pigs; from tissue; host or cells: longitudinal muscle of guinea-pig ileum (Hartley, male)
Kind of series: In vitro antihistamine activity: shift of histamine concentration-response curves (Schild plot), isolated guinea-pig ileum longitudinal muscle. The series is classed as cell-based. Conditions: vs histamine, one hour incubation with test compound, 60 min. The protocol:
A. In vitro antihistamine activity: The longitudinal muscle was isolated from the intact ileum of guinea-pigs (Hartley, male 250-400 g) and placed in an organ bath under 300 mg tension. After one hour of equilibration, cumulative concentration-response curves (Van Rossum, J. M., Arch. Int. Pharmacodyn. Ther. 143, 299-330, 1963) to histamine were obtained. Following washing, the tissues were incubated for one hour with the test compound and then a second histamine concentration-response curve was run. Shifts to the right of the agonist concentration-response curve produced by the antagonists were used to construct Schild plots (Arunlakshana, O. and Schild, H. O., Br. J. Pharmacol. 14, 48-58, 1959). Regression of Log (dr-l) on Log [B], where dr is an equiactive response in the presence and absence of antagonist and [B] is the molar concentration of antagonist, allowed an estimate of pA2, i.e. the negative log of the concentration of antagonist which shifts the control histamine concentration response curve 2X to the right.

Where two headings read alike, the source gives them in different places.

T1 sequence (P31389 whole entry): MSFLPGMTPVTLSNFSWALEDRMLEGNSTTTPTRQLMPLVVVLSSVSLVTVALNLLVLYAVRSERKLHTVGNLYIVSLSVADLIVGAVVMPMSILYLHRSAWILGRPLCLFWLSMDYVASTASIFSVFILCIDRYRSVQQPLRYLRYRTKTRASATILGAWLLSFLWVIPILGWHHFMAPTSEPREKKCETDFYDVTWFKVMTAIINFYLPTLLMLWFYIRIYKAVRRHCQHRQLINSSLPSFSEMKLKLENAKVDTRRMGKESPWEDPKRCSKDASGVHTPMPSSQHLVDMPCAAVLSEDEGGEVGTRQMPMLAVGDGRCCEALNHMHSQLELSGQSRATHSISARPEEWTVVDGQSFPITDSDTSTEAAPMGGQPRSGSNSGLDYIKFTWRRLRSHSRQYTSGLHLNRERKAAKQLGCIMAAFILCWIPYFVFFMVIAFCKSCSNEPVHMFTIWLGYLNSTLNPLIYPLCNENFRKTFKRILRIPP

As to `CC(CN1c2ccccc2Sc2ccccc21)N(C)C` (centres unmarked) [promethazine, 10-(2-dimethylaminopropyl)phenothiazine], the anticholinergic activity result in series [1] is given as “potent anticholinergic activity”. Besides, in series [2] (in some patients, antihistamines now in use), the sedation or drowsiness result is listed as “cause sedation or drowsiness in some patients”.

Consider `COc1ccc(CN(CCN(C)C)c2ccccn2)cc1` [pyrilamine], for which, in series [2] (in vivo), the sedation or drowsiness entry is “cause sedation or drowsiness in some patients”.

Consider `CN(C)CCCN1c2ccccc2Sc2ccc(S(=O)(=O)O)cc21` [Example 2, 10-(3'-N,N-Dimethylaminopropyl)phenothiazine-2-sulphonic acid hemihydrate], for which the pA2 in series [3] worked out at 7.8.

Turning to `Cc1ccc(/C(=C\CN2CCCC2)c2ccccn2)cc1` [triprolidine], the sedation or drowsiness result in series [2] (in vivo) is “cause sedation or drowsiness in some patients”.

The pA2 is the negative logarithm of the molar antagonist concentration that doubles the agonist concentration needed for the same response.

The record behind these values is patent publication US4705854A, “Phenothiazine compounds” (priority 1984, dated 1987).
